Assay results: patent publication US8415469B2, “Compounds and methods for kinase modulation, and indications therefor” (Plexxikon Inc., priority 2005, dated 2013)

Tests used:
Assay type in all cases: biochemical
p38 = target: T1, p38 (Homo sapiens, UniProt Q16539); experiment: AlphaScreen kinase assay, p38; settings: read-out: IC50, activity toward kinase p38
T1 construct: P4292.pET15S P38A M1-S360-X MKK6DD; His6 with thrombin site (N); made in house
From the text: (§2) AlphaScreen assay was used to screen additional kinases. The assay is similarly dependent on the phosphorylation of a peptide substrate. In this assay, an antibody that recognizes phosphorylated substrate is bound to an acceptor bead. The peptide substrate is attached to biotin, which binds to a donor head that contains streptavidin. Thus phosphorylated substrate is bound by antibody and streptavidin, bringing the donor and acceptor heads into close proximity when kinase is not inhibited. The donor produces singlet oxygen which results in emission from the acceptor when they are in close proximity. Conversely, when kinase is inhibited, the donor and acceptor beads are not associated and the emission from the acceptor is reduced.
(§3) AlphaScreen assays were done using compounds dissolved in DMSO to a concentration of 20 mM. The compounds were diluted accordingly to the desired final concentrations in each sample well, using 1:3 serial dilution for a total of 8 concentration points. Plates were prepared such that each kinase reaction is 20 μl in 1× kinase buffer, 5% DMSO and 10 μM ATP. After incubation of the kinase reaction for 1 hour at room temperature, 5 μl of donor beads in stop buffer (50 mM EDTA in 1× kinase buffer) was added, the sample was mixed and incubated for 20 minutes at room temperature before adding 5 μl of acceptor beads in stop buffer. The samples were incubated for 60 minutes at room temperature and the signal per well was read on AlphaQuest reader.

Kit = target: T2, Kit (Homo sapiens, UniProt P10721); experiment: AlphaScreen kinase assay, Kit; settings: read-out: IC50, activity toward kinase Kit
T2 construct: P1332.N6 BI PTP KIT M552-K948-X COD; His6 (N); made in house; host or cells: E. coli (PTP1B co-expressed)

Stk6 = target: T3, Stk6 (Homo sapiens, UniProt O14965); experiment: Z'-Lyte FRET kinase assay (Invitrogen), Stk6; settings: read-out: IC50, activity toward kinase Stk6
T3 construct: purchased Invitrogen (Carlsbad, Calif.), screening service
T3 sequence (O14965 1-403): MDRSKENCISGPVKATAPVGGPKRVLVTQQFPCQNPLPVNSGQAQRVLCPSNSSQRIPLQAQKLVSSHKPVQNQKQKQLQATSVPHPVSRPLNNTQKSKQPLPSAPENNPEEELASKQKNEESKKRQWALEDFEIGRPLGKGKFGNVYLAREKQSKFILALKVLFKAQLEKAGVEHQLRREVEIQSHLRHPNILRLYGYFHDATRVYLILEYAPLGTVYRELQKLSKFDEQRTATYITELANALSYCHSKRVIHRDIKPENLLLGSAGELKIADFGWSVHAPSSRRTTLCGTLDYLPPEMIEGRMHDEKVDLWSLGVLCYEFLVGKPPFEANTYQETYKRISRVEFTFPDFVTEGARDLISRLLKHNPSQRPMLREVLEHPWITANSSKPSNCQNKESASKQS

MAP2K1 = target: T4, MAP2K1 (Homo sapiens, UniProt Q02750); experiment: Z'-Lyte FRET kinase assay (Invitrogen), MAP2K1; settings: read-out: IC50, activity toward kinase MAP2K1
T4 construct: purchased Invitrogen (assay run by Invitrogen)

Kdr = target: T5, Kdr (Homo sapiens, UniProt P35968); experiment: Z'-Lyte FRET kinase assay (Invitrogen), Kdr; settings: read-out: IC50, activity toward kinase Kdr
T5 construct: purchased Invitrogen (assay run by Invitrogen)

Irak4 = target: T6, Irak4 (Homo sapiens, UniProt Q9NWZ3); experiment: Z'-Lyte FRET kinase assay (Invitrogen), Irak4; settings: read-out: IC50, activity toward kinase Irak4
T6 construct: purchased Invitrogen (assay run by Invitrogen)
T6 sequence (Q9NWZ3 1-460): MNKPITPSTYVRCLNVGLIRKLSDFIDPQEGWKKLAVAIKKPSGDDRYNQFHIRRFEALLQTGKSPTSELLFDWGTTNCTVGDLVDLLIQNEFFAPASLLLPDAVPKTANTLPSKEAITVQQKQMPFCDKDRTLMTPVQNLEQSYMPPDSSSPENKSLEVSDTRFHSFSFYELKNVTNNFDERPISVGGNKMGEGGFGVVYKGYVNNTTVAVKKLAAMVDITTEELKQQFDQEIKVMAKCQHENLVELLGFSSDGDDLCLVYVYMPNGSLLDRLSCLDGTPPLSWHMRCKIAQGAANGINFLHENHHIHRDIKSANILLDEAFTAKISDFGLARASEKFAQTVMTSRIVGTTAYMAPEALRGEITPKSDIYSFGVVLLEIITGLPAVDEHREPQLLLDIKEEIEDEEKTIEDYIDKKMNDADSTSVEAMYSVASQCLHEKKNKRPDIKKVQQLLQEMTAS
From the text: The effect of potential modulators of kinase activity can be measured in a variety of different assays known in the art. For example, direct radiometric, indirect FRET or AlphaScreen assays may be used to assess the level of phosphorylation of a substrate in the presence of test compounds in order to determine the inhibitory affect of the compound on the kinase. Invitrogen (Carlsbad, Calif.) uses a FRET based assay for Btk, EGFR, EphB2, Flt3, lrak4, Kdr, MAP2K1, MAPKAPK2, PDGFRB, PKC theta, Stk6 and Yes. For these assays, compounds of the invention were screened by Invitrogen using Z′-Lyte™ kinase assay.
Briefly, the Invitrogen kinase assay involves use of a specific peptide substrate optimized for each kinase, containing a fluorophore at each end that make up the FRET pair. The peptide sensitivity to proteolytic cleavage depends on phosphorylation of the peptide. Non-phosphorylated peptide is cleaved by a protease while peptide phosphorylated by the kinase is not cleaved. Cleavage of the peptide disrupts the FRET between the donor (coumarin) and acceptor (fluorescein) fluorophores, resulting in an increase in the ratio of donor emission to acceptor emission. The emission ratio of coumarin to fluorescein is used to assess the reaction progress. The extent of phosphorylation is determined from the emission ratio, which is low when the kinase is active (phosphorylated peptide is not cleaved, FRET pair connected) or higher for inhibited kinase (non-phosphorylated peptide is cleaved, FRET pair separated). Thus, the assay involves a kinase reaction in the presence of varying concentrations of a given compound, a development reaction with site specific protease, and detection of the fluorescent emission ratio of coumarin and fluorscein. […] Reaction conditions for each kinase are determined to provide optimal reaction times, incubation temperature, kinase and ATP concentrations. Test samples are made up in 1× kinase buffer (50 mM HEPES pH 7.5, 50 mM MgCl2, 5 mM EGTA, 0.05% BRIJ-35) and compound at desired concentration prepared in DMSO such that the final DMSO is 1%. […] Typically, assay plates are prepared to 10 μl final volume per sample, adding 2.5 μl of compound at 4× the desired concentration in 4% DMSO (serial dilution of compound provides concentration curve), 5 μl of the desired kinase mixed with Z′-LYTE™ peptide substrate (2× in 2× kinase buffer, final peptide at 2 μM), and 2.5 μl of 4×ATP solution. All kinase except for MAP2K1 were at 10 μM ATP in the kinase reaction, while MAP2K1 was at 100 μM. Samples are mixed and the kinase reaction is incubated 1 hour at room temperature, after which 5 μl of development solution is added and mixed. After incubation for another 1 hour at room temperature, 5 μl of stop reagent is added to each sample and mixed. The fluorescence signals are measured to determine the emission ratio.

IKK beta = target: T7, IKK beta (Homo sapiens, UniProt O14920); experiment: AlphaScreen kinase assay, IKK beta; settings: read-out: IC50, activity toward kinase IKK beta
T7 sequence (O14920 1-756): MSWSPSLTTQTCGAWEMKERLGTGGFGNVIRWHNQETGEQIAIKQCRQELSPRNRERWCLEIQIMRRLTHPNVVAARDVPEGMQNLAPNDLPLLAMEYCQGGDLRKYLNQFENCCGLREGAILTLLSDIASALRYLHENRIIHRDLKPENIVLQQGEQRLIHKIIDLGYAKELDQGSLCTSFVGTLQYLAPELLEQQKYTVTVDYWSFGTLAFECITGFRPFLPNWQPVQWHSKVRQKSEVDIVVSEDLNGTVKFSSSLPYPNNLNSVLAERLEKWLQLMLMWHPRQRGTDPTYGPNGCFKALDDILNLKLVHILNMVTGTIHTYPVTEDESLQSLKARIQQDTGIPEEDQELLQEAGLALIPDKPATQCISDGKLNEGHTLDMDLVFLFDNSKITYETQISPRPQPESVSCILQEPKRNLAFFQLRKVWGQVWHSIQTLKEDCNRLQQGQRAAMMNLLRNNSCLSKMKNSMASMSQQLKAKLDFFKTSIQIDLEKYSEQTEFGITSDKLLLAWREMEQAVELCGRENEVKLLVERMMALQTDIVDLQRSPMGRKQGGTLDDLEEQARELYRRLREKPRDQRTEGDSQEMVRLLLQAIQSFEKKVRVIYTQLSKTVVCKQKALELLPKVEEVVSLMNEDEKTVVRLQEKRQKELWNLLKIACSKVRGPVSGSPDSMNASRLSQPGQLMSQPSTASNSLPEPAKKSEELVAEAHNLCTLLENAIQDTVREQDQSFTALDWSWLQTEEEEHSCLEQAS
From the text: as §2, §3

MAP4K4 = MAP4K4 (Homo sapiens, UniProt O95819); experiment: AlphaScreen kinase assay, MAP4K4; settings: read-out: IC50, activity toward kinase MAP4K4
Flt1 = target: T8, Flt1 (Homo sapiens, UniProt P17948); experiment: AlphaScreen kinase assay, Flt1; settings: read-out: IC50, activity toward kinase Flt1
T8 construct: P1826.pETN6 BI-PTP FLT1 M799-D1165-X WT; His6 (N); made in house; host or cells: E. coli (PTP1B co-expressed)
T8 sequence (P17948 with tags, fused parts or gaps): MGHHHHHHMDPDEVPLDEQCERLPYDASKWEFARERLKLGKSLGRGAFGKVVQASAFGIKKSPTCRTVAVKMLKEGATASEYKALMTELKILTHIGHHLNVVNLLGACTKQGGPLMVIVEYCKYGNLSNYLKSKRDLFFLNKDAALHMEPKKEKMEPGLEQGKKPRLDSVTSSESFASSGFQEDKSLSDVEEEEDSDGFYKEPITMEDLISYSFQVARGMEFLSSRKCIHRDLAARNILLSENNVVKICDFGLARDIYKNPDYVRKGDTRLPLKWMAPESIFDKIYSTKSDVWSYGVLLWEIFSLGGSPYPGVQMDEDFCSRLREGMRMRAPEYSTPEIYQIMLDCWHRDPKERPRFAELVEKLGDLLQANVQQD
From the text: as §2, §3

Met = target: T9, Met (Homo sapiens, UniProt P08581); experiment: AlphaScreen kinase assay, Met; settings: read-out: IC50, activity toward kinase Met
T9 construct: P1818.pETN6 BI-PTP MET G1056-G1364-X WT; His6 (N); made in house; host or cells: E. coli (PTP1B co-expressed)
Summary of the method: (§1)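 Biotinylated peptide substrate phosphorylation detected by AlphaScreen with phospho-specific antibody acceptor beads and streptavidin donor beads. Compounds tested as 8-point 1:3 serial dilutions from 20 mM DMSO stocks.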

Abl = target: T10, Abl (Homo sapiens, UniProt P00519); experiment: AlphaScreen kinase assay, Abl; settings: read-out: activity toward kinase Abl, IC50
T10 construct: P1121. pET-SPEC BI-PTP Abl G227-V515-X; His6 (N); made in house; host or cells: E. coli (PTP1B co-expressed)
T10 sequence (P00519 with tags, fused parts or gaps): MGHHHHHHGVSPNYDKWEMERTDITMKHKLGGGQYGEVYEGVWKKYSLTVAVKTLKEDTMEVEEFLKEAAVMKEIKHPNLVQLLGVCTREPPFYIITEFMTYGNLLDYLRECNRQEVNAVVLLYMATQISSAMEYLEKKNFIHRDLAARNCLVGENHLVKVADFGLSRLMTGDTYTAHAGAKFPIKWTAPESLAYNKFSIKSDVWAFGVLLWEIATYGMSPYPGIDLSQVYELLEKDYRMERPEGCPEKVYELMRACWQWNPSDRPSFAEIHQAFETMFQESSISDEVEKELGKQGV
Summary of the method: as §1

FGFR1 = target: T11, FGFR1 (Homo sapiens, UniProt P11362, C488A/C584S); experiment: AlphaScreen kinase assay, FGFR1; settings: read-out: IC50, activity toward kinase FGFR
T11 construct: P1351.pET N6 BI-PTP FGFR A458-E765-X C488A, C584S; made in house; host or cells: E. coli (PTP1B co-expressed)

Ret = target: T12, Ret (Homo sapiens, UniProt P07949); experiment: AlphaScreen kinase assay, Ret; settings: read-out: IC50, activity toward kinase Ret
T12 construct: P1378.pET-SF BI-PTP RET H661-R1012 HIS; made in house
T12 sequence (P07949 with tags, fused parts or gaps): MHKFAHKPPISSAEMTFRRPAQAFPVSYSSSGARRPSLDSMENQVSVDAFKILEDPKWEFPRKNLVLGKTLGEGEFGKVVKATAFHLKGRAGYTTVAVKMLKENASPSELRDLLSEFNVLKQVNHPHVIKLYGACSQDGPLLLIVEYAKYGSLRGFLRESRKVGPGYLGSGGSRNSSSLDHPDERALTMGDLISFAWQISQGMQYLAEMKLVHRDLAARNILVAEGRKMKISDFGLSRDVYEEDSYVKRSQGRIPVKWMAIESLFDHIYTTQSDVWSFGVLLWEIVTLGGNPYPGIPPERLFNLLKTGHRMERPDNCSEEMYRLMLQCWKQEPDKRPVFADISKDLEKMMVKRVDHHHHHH

Flt4 = target: T13, Flt4 (Homo sapiens, UniProt P35916); experiment: AlphaScreen kinase assay, Flt4; settings: read-out: IC50, activity toward kinase Flt4
T13 construct: purchased ProQinase GmbH (Freiburg, Germany)
Summary of the method: as §1

Measured: IC50

T5 sequence (P35968 20-1356): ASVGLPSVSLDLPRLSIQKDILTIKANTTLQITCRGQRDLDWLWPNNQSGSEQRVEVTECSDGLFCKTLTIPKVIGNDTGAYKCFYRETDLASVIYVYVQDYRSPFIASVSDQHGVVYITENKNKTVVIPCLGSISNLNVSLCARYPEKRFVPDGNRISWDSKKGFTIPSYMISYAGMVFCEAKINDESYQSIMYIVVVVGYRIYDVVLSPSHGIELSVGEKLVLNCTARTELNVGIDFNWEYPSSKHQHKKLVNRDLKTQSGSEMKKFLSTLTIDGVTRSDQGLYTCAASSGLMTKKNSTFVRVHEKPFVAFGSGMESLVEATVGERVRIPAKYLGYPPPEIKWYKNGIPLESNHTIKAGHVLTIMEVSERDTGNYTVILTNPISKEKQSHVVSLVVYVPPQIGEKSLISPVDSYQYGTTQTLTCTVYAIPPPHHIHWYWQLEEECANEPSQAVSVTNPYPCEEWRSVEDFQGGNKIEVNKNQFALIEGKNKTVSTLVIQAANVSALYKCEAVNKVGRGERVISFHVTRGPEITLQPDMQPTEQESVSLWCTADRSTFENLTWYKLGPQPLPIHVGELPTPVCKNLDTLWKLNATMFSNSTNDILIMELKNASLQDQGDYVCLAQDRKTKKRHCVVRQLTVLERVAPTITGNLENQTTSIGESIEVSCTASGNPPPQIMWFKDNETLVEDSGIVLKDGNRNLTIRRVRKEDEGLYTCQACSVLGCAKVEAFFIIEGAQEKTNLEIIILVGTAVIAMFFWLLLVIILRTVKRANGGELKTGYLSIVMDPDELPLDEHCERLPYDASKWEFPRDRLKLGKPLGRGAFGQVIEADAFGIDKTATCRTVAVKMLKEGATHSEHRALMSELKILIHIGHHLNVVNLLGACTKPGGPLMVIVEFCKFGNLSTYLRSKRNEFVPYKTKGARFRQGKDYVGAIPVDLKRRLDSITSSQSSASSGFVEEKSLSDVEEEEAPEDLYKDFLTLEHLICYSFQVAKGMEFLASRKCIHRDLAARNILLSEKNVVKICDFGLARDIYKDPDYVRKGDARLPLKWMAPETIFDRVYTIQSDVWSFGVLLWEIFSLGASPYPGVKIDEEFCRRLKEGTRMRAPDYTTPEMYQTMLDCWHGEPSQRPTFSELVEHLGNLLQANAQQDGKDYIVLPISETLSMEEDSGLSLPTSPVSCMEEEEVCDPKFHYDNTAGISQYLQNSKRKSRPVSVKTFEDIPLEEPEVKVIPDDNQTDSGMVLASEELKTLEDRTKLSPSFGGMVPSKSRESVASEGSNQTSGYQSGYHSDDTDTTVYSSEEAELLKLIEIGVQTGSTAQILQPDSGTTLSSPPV
T4 sequence (Q02750 whole entry): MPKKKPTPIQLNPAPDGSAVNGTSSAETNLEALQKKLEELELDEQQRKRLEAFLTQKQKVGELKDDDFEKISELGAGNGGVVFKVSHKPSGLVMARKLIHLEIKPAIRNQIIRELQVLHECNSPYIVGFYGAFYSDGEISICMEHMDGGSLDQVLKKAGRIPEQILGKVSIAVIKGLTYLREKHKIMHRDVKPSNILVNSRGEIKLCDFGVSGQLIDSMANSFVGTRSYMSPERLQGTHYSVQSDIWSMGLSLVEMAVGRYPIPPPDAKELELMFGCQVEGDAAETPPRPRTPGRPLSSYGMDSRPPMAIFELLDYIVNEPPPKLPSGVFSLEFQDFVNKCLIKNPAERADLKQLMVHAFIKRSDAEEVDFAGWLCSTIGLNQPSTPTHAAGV
T2 sequence (P10721 with tags, fused parts or gaps): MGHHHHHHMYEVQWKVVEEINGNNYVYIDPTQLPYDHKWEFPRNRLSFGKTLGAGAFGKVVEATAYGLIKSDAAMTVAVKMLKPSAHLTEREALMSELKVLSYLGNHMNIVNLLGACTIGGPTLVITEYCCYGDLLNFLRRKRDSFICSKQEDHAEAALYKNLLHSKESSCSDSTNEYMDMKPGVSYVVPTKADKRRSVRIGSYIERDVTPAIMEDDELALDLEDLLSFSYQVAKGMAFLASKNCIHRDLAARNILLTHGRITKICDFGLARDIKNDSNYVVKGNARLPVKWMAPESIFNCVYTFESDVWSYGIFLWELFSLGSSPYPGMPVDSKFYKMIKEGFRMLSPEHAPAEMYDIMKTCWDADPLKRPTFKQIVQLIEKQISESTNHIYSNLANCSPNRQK
T1 sequence (Q16539 with tags, fused parts or gaps): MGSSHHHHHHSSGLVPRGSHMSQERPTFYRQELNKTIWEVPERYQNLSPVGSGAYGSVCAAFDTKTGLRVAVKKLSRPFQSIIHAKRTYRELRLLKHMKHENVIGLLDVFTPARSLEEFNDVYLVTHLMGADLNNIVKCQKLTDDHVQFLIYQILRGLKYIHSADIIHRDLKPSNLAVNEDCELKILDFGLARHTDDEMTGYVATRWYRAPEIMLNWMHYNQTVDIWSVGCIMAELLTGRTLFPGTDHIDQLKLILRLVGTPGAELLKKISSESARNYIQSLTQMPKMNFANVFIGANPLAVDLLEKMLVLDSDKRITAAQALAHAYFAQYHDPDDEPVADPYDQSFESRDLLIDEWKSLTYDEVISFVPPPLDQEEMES
T9 sequence (P08581 with tags, fused parts or gaps): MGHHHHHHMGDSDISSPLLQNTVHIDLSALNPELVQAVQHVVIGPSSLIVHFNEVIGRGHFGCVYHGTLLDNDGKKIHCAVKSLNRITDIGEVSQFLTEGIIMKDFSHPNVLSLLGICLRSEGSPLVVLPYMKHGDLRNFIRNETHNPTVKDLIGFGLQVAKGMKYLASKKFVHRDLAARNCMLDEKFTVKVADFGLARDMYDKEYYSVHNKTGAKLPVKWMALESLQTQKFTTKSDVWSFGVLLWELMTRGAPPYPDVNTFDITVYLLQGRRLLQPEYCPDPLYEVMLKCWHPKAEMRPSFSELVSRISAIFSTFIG
T11 sequence (P11362 458-765 C488A/C584S): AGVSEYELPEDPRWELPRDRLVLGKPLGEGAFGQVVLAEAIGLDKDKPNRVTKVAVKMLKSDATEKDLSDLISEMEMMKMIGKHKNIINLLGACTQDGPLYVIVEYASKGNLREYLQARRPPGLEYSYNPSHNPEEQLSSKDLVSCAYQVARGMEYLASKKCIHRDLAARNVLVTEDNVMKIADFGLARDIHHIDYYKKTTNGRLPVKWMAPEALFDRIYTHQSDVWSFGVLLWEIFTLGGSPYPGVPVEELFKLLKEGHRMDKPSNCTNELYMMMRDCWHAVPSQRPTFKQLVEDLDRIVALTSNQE
Sequence of MAP4K4 (O95819 whole entry): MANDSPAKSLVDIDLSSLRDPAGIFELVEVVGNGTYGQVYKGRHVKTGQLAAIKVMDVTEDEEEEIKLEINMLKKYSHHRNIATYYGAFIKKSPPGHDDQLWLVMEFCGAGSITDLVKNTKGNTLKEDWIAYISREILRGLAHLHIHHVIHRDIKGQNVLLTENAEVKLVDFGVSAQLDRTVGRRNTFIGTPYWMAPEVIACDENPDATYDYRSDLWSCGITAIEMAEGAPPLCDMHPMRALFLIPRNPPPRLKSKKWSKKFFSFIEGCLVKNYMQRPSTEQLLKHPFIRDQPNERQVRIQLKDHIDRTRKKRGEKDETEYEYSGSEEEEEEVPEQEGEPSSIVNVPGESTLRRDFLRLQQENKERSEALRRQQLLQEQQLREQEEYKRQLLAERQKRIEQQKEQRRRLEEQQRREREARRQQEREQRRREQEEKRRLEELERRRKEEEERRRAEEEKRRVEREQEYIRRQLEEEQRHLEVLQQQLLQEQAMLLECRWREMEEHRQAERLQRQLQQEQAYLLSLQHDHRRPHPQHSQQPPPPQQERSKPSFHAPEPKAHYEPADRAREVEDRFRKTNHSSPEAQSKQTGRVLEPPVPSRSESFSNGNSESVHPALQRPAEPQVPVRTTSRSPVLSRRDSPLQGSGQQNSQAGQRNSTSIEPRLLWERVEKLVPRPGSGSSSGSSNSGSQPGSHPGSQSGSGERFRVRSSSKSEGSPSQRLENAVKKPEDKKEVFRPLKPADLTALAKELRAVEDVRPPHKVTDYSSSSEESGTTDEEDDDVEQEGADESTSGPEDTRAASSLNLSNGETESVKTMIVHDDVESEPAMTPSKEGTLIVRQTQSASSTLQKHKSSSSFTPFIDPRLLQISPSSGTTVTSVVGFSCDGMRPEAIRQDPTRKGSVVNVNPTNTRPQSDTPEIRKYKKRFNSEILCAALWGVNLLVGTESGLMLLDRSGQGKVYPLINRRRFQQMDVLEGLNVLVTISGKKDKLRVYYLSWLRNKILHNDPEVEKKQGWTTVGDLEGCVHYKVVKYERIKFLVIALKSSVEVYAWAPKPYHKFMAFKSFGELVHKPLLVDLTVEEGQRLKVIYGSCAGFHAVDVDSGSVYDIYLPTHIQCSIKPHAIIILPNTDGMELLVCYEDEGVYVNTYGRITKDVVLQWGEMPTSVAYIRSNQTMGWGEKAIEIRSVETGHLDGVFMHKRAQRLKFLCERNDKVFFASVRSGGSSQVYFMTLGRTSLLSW

Brc1ccc(/C=C\c2c[nH]c3ncccc23)cc1 [Compound P-0511]
≤ 10 µM: p38 | Kit

OCc1cccc(-c2c[nH]c3ncccc23)c1 [Compound P-0087]
≤ 10 µM: Stk6 | MAP2K1 | Kdr | Irak4 | IKK beta

c1cnc2[nH]cc(-c3ccncc3)c2c1 [Compound P-0130]
≤ 10 µM: MAP4K4 | Kdr | Irak4

Nc1cccc(-c2c[nH]c3ncccc23)c1 [Compound P-0091]
≤ 10 µM: Flt1 | Stk6 | Kdr | Irak4

CC(=O)Nc1cccc(-c2c[nH]c3ncccc23)c1 [Compound P-0076]
≤ 10 µM: Stk6 | MAP2K1 | Kdr | Irak4 | Met

O=C(c1ccccc1F)c1c[nH]c2ncc(-c3cccnc3)cc12 [Compound P-0708]
≤ 10 µM: Flt1 | Abl | FGFR1 | Ret | Kdr | p38 | Flt4 | Kit
